Data set [1] deals with K562 (chronic myelogenous leukemia). The data set is described as follows: MTT cell proliferation assay, K562. Format: cell-based. The conditions noted are these: Homo sapiens, K562, 72 h of exposition, read-out: Anti-proliferative activity IC50, K562. The procedure, abridged: (§1)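 IC50 values come from an MTT proliferation assay; sorafenib, nilotinib and lapatinib served as reference standards.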
Background: Tetrazolium dyes change colour on reduction, which living cells bring about.

Data set [2] deals with T1, PDGFRα (Homo sapiens, UniProt P16234).
T1 construct: purchased Promega
The data set is described as follows: ADP-Glo kinase assay, PDGFRα. Format: biochemical. The procedure: (§2) The ADP-Glo kinase assay (Promega, Madison, WI, USA) was used to screen compounds 5, 8–10, 14, 17, 19 and 24 for the tyrosine kinase (Kinase Selectivity Profiling System TK-1, Promega, Madison, WI, USA) and serine/threonine kinase (Kinase Selectivity Profiling System Other/CK-1, Promega, Madison, WI, USA) inhibition effects according to the manufacturer’s technical manual. The luminescence data were analyzed as described in our prior work.
(§3) The selectivity of the potential kinase inhibitor against a specific protein kinase or a specific family of kinases was investigated using the Kinase Selectivity Profiling System TK-1, Other/CK-1 and ADP-Glo™ Kinase assay kit (Promega, Madison, WI, USA).

Data set [3] addresses T2, KDR (VEGFR-2) (Homo sapiens, UniProt P35968).
T2 construct: purchased Promega
In words: ADP-Glo kinase assay, KDR. The data set is classed as biochemical.

In data set [4] the target is T3, HER2 (Homo sapiens, UniProt P04626).
T3 construct: purchased Promega
The data set is described as follows: ADP-Glo kinase assay, HER2. The data set is classed as biochemical. Here is the method:
as §2, §3
For orientation: In ADP-Glo the light output rises with the ADP produced.

For data set [5], the system named is A549 (lung carcinoma). In words: MTT cell proliferation assay, A549. The data set is classed as cell-based. Particulars: Homo sapiens, A549, 72 h of exposition, read-out: Anti-proliferative activity IC50, A549. The procedure, abridged: as §1
Data set [6] relates to HL-60 (promyelocytic leukemia). In words: MTT cell proliferation assay, HL-60. Format: cell-based. Particulars: Homo sapiens, HL-60, 72 h of exposition, read-out: Anti-proliferative activity IC50, HL-60. The procedure, abridged:
as §1

Data set [7] relates to HepG2 (human liver cancer). The data set is described as follows: MTT cell proliferation assay, HepG2. Particulars: Homo sapiens, HepG2, 72 h, HepG2, 72 h of exposition, read-out: Anti-proliferative activity IC50, HepG2. Format: cell-based. The procedure, abridged: as §1
Data set [8] addresses T4, HER4 (Homo sapiens, UniProt Q15303).
T4 construct: purchased Promega
In words: ADP-Glo kinase assay, HER4. Format: biochemical. Here is the method: as §2, §3

In data set [9] the target is T5, Aurora B (Homo sapiens, UniProt Q96GD4).
T5 construct: purchased Promega
In words: ADP-Glo kinase assay, Aurora B. The data set is classed as biochemical. Here is the method:
as §2, §3

Data set [10] concerns OKP-GS (renal cell carcinoma). The data set is described as follows: MTT cell proliferation assay, OKP-GS. Particulars: 72 h of exposition, read-out: Anti-proliferative activity IC50, OKP-GS. Format: cell-based. The procedure, abridged: as §1
For data set [11], the target named is T6, InsR (insulin receptor) (Homo sapiens, UniProt P06213).
T6 construct: purchased Promega
In words: ADP-Glo kinase assay, InsR. The data set is classed as biochemical. The procedure: as §2, §3

Data set [12] has as its target T7, Aurora A (Homo sapiens, UniProt O14965).
T7 construct: purchased Promega
T7 sequence (O14965 1-403): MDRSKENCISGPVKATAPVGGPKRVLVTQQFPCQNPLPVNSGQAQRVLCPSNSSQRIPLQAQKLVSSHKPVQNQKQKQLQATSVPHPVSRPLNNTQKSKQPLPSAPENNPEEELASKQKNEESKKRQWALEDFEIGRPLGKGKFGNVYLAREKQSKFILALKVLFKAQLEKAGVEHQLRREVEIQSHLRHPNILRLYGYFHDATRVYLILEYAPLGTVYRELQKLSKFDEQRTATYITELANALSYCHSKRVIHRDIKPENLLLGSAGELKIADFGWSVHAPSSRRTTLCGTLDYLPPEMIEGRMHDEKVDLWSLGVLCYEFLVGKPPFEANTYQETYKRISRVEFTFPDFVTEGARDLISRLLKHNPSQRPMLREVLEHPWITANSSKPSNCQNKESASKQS
In words: ADP-Glo kinase assay, Aurora A. The data set is classed as biochemical. The procedure:
as §2, §3

In data set [13] the target is T8, EGFR (Homo sapiens, UniProt P00533).
T8 construct: purchased Promega
In words: ADP-Glo kinase assay, EGFR. Format: biochemical.

The target of data set [14] is T9, IGF1R (insulin-like growth factor 1 receptor) (Homo sapiens, UniProt P08069).
T9 construct: purchased Promega
In words: ADP-Glo kinase assay, IGF1R. The data set is classed as biochemical. Here is the method: as §2, §3

Data set [15] has as its system K562 cells. In words: Cell cycle analysis (propidium iodide, flow cytometry). The data set is classed as cell-based. Particulars: 48 h. Here is the method: Tumor cells were seeded on a 6-well plate at a density of 400,000 per well for K562. Test compounds 5, 14 and 15 were added at concentrations of 1, 5 and 10 μM in duplicate for 48 h. The methodology and analysis of the obtained data were performed as described in our prior work.
As shown above, compounds 5, 14 and 15 had significant antiproliferative activities, which is why their influences on the cell cycle and apoptosis level were determined, with the aim of understanding whether these effects are cytostatic or cytotoxic. In the cell cycle experiments, K562 cells were used. […] For the determination of changes in the distribution of cells in the phases of the cell cycle, the widely employed method of staining the cells with propidium iodide was used.

In data set [16] the target is T10, PDGFRβ (Homo sapiens, UniProt P09619).
T10 construct: purchased Promega
In words: ADP-Glo kinase assay, PDGFRβ. Format: biochemical. Here is the method:
as §2, §3

For data set [17], the system named is RPMI 1788 cells (B lymphocyte, human). The data set is described as follows: MTT cell proliferation assay, normal RPMI 1788 cells. Format: cell-based. The conditions noted are these: normal human lymphoblastoid cells RPMI 1788, 72 h of exposition, read-out: Anti-proliferative activity IC50, RPMI 1788. The procedure, abridged: as §1
Data set [18] deals with K562 cells. The data set is described as follows: Annexin V-FITC/PI apoptosis assay. The data set is classed as cell-based. Particulars: 48 h. The procedure: K562 tumor cells were plated on a 6-well plate at a density of 400,000 per well. Test compounds 5, 14 and 15 were added at concentrations of 1, 5 and 10 μM in duplicate for 48 h. The methodology and analysis of the obtained data were performed as described in our prior work.
The effects of compounds 5, 14 and 15 on cell apoptosis were examined using the Annexin V-FITC Kit (Beckman Coulter, Brea, CA, USA) according to the protocols provided. The Annexin V-FITC Kit is an apoptosis detection kit based on the binding properties of annexin V to phosphatidylserine (PS) and on the DNA intercalating capability of propidium iodide (PI). K562 cells were treated with compound 5, 14 and 15 at 1, 5 and 10 μM for 48 h, after which annexin V/PI binding was measured by flow cytometry.

Data set [19] concerns K562 cell line. In words: ROS determination (DCFH-DA, flow cytometry). The data set is classed as cell-based. Particulars: 48 h. (In general: A flow cytometer gives signals particle by particle.)
Experimental: The redox status was assessed using the K562 cell line. […] Then, the cells were washed to remove the 2′,7′-dichlorodihydrofluorescein diacetate by centrifugation at 1000 rpm for 5 min. The measurements were conducted using a Cytomics FC500 Beckman Coulter flow cytometer (FL1 channel for DCF).
Data set [20] relates to MCF-7 (breast adenocarcinoma). The data set is described as follows: MTT cell proliferation assay, MCF-7. Format: cell-based. The conditions noted are these: Homo sapiens, MCF7, MCF-7, 72 h of exposition, read-out: Anti-proliferative activity IC50, MCF-7. In a few lines: as §1
Data set [21] concerns cancer cell lines (K562, HL-60, MCF-7, HepG2, A549, OKP-GS). The data set is described as follows: MTT cell proliferation assay, statements over the whole cell line panel. Particulars: statement over the cell line panel, studied concentration range up to 50 µM; read-out: Antiproliferative activity (IC50) over the studied cell cultures. Format: cell-based. The procedure:
Tests to determine the effects of the synthesized compounds on cell viability and the half-maximal inhibitory concentration (IC50) were performed using the MTT assay, as described in our prior work.
The target compounds 5, 6, 8–12, 14, 15, 17–22 and 24–26 were tested for antiproliferative activity against six cancer cell lines: K562 (chronic myelogenous leukemia), HL-60 (promyelocytic leukemia), MCF-7 (breast adenocarcinoma), HepG2 (human liver cancer), A549 (lung carcinoma) and OKP-GS (renal cell carcinoma). The RPMI 1788 cells (B lymphocyte, human) were used as a control to evaluate the system toxicity of the studied compounds to normal cells. Sorafenib, nilotinib and lapatinib were utilized as reference standards for comparison.

This is an account of results in article PMC10046946, “Novel Phthalic-Based Anticancer Tyrosine Kinase Inhibitors: Design, Synthesis and Biological Activity” (Current Issues in Molecular Biology, 2023).

In general, IC50 refers to the concentration that gives 50% inhibition. The term inhibition denotes the relative decrease from the control value, in per cent. Low readings indicate a response near the control, high ones a response far below the control. Usually melting point stands for the temperature of the solid-liquid transition.

T10 sequence (P09619 33-1106): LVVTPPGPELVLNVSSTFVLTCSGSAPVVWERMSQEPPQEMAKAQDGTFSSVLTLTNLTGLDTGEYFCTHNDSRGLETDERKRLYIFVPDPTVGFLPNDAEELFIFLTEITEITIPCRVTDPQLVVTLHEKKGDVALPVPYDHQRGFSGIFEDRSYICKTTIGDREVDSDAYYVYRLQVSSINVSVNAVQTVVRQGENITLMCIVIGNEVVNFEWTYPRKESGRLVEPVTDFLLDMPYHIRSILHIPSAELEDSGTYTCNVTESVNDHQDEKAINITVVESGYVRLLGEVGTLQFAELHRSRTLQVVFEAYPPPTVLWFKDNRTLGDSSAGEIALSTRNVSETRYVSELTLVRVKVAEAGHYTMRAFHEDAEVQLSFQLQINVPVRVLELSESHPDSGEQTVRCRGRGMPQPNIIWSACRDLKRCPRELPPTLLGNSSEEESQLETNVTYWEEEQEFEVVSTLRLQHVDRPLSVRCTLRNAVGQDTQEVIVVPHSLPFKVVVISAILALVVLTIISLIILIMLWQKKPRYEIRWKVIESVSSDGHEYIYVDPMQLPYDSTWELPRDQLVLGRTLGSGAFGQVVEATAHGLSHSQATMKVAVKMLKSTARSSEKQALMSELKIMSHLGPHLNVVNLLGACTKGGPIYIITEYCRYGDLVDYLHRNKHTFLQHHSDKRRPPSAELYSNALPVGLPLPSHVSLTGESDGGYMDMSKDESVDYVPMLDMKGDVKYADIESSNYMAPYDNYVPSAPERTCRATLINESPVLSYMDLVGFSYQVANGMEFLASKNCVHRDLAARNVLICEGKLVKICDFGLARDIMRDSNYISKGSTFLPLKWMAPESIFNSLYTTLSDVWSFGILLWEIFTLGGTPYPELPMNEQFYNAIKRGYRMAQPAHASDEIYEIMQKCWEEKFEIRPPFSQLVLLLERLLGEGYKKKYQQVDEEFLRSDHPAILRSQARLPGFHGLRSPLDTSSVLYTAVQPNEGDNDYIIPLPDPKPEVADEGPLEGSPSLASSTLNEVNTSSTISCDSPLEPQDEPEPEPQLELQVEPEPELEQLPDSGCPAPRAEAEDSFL
T9 sequence (P08069 31-1367): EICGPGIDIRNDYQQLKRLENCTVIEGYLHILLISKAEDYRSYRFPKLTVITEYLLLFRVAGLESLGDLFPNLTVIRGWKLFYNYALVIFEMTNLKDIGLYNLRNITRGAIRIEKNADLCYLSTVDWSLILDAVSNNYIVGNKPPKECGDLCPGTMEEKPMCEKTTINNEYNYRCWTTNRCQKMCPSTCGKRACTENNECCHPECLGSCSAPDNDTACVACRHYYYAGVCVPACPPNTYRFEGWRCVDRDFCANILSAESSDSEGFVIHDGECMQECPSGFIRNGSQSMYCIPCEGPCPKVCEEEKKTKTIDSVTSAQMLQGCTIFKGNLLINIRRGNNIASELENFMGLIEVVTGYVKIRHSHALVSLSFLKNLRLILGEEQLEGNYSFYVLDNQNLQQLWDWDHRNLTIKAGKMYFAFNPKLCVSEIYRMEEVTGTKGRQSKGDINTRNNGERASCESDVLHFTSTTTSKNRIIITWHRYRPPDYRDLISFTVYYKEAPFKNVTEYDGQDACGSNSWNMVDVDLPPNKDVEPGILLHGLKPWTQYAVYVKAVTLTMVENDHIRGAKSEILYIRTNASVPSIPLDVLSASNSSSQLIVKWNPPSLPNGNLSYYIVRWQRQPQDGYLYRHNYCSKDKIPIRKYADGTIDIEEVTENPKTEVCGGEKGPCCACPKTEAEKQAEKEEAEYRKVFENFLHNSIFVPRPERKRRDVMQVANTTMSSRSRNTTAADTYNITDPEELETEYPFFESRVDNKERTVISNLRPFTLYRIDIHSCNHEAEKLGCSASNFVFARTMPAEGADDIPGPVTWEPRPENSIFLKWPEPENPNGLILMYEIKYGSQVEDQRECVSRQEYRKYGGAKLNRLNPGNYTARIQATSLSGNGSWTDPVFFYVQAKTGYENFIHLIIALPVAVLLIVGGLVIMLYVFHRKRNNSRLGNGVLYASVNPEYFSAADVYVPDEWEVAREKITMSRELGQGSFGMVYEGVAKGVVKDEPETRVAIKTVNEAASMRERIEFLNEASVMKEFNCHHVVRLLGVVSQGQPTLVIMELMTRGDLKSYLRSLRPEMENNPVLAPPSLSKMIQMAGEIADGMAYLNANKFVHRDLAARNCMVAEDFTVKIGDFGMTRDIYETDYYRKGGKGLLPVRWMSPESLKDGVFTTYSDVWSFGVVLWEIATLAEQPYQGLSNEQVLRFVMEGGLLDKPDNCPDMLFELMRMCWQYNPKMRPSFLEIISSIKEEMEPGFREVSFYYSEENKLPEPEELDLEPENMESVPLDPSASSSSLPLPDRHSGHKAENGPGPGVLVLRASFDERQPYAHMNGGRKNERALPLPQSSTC
T1 sequence (P16234 24-1089): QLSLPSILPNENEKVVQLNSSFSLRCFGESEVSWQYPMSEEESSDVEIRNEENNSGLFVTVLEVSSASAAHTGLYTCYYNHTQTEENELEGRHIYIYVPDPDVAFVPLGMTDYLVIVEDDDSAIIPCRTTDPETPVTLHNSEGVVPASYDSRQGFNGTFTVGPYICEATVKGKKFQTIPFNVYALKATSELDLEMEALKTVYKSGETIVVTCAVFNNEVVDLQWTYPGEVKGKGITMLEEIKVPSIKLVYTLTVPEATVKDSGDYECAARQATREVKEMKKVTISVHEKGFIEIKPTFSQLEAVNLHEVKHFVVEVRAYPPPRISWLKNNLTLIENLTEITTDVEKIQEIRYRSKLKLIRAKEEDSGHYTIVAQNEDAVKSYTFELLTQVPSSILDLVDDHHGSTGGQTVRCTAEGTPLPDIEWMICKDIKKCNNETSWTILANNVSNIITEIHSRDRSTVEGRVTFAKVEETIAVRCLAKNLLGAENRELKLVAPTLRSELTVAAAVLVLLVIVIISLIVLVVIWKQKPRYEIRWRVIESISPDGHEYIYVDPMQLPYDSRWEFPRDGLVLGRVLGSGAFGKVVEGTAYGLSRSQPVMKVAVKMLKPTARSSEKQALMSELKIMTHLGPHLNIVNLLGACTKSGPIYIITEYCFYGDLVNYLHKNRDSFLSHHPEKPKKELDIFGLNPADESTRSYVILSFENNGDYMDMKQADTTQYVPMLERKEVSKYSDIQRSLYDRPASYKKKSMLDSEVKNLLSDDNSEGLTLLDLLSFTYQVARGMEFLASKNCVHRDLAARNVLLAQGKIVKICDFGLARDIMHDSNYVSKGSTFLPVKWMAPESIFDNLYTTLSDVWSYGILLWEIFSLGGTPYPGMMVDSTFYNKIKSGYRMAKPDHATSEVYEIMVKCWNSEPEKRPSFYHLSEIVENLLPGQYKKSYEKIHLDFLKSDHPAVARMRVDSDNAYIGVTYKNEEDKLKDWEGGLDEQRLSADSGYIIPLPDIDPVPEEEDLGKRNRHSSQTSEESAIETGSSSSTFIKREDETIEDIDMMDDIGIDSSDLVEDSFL
T8 sequence (P00533 25-1210): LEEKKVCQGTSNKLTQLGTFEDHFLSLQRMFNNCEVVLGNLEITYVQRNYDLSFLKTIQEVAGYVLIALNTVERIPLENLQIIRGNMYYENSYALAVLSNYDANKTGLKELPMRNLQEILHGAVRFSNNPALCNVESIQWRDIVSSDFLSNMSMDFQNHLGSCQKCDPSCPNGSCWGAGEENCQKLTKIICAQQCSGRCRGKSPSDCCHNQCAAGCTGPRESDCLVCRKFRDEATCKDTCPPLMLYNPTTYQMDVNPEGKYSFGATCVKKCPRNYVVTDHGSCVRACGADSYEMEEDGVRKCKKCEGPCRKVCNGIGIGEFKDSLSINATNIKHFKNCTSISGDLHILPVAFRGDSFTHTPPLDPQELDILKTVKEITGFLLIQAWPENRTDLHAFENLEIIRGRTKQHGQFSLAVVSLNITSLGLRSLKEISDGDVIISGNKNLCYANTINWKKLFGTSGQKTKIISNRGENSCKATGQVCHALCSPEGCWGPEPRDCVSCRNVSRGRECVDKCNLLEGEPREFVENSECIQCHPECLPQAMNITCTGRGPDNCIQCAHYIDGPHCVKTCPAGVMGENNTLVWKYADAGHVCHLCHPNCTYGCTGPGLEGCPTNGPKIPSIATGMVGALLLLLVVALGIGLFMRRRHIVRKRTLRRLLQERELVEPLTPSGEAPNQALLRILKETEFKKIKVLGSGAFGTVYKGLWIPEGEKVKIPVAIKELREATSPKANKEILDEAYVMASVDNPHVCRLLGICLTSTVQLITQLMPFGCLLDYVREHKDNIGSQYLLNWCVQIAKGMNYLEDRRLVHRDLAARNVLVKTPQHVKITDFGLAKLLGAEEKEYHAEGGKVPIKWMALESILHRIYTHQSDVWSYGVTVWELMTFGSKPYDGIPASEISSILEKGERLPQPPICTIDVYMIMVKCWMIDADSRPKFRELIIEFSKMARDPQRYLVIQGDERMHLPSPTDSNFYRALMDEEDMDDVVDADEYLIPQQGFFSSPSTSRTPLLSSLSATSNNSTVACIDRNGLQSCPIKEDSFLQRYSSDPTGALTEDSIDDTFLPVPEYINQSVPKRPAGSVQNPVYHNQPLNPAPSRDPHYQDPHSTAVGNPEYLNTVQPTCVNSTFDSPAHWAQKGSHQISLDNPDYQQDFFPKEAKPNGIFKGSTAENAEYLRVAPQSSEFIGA
T5 sequence (Q96GD4 whole entry): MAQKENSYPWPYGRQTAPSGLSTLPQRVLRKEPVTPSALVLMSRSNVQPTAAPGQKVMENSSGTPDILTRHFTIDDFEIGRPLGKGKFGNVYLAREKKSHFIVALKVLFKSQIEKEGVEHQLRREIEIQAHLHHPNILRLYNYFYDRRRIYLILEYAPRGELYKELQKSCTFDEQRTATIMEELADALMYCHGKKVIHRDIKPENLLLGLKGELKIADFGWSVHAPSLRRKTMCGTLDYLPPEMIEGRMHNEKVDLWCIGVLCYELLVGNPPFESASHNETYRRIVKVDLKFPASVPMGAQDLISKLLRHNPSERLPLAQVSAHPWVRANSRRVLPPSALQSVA

Compound `Cc1cn(-c2cc(NC(=O)c3cccc(C(=O)N4CCN(C(=O)c5ccccc5F)CC4)c3)cc(C(F)(F)F)c2)cn1` [Compound 14, 3-(4-(2-Fluorobenzoyl)piperazine-1-carbonyl)-N-(3-(4-methyl-1H-imidazol-1-yl)-5-(trifluoromethyl)phenyl)benzamide] gave a melting point of 135 to 138 °C. In addition, the IC50 in [1] stood at 7.71 ± 2.84 µM. Moreover, in data set [2], testing at 10 µM gave an inhibition of 24%. This compound also registered an inhibition at 10 µM in data set [3] of 26%. For the same compound, the inhibition at 10 µM in [4] was 14%. Besides, the IC50 in data set [5] was over 50 µM. The IC50 in [6] was 32.5 ± 1.5 µM. The 50% inhibitory concentration (IC50) in [7] worked out at 44.1 ± 4.19 µM. In data set [8], the inhibition at 10 µM is 0%. The inhibition at 10 µM in data set [9] is 7%. The IC50 in data set [10] was over 50 µM. The compound further came in with an inhibition at 10 µM in data set [11] of 0%. The compound also returned an inhibition at 10 µM in data set [12] of 0%. The same compound came in with an inhibition at 10 µM in data set [13] of 21%. Testing at 10 µM in [14] gave an inhibition of 0%. Besides, in data set [15] (K562, 1 µM), the “Apoptosis, % (cell cycle analysis)” value is 14.28%; the “G1, %” value worked out at 32.65%; the “G2/M, %” value worked out at 46.95%; the “S, %” value is 20.41%. In addition, in data set [15] (K562, 5 µM), the “Apoptosis, % (cell cycle analysis)” value is on record as 25.10%; the “G1, %” value is on record as 27.58%; the “G2/M, %” value turned out to be 55.16%; the “S, %” value is recorded as 17.25%. For the same compound, in data set [15] (K562, 10 µM), the “Apoptosis, % (cell cycle analysis)” value is given as 38.02%; the “G1, %” value came out at 31.21%; the “G2/M, %” value is 51.08%; the “S, %” value worked out at 17.71%. Moreover, in data set [16], at 10 µM the inhibition was 23%. For the same compound, the concentration for half-maximal inhibition (IC50) in data set [17] came to 26.6 ± 2.31 µM. Moreover, in [18] (K562, 1 µM), the “normal live cells (living cells)” value is recorded as 83.95%. In data set [18] (K562, 5 µM), the “normal live cells (living cells)” value is given as 65.68%. Further, the “normal live cells (living cells)” value in data set [18] (K562, 10 µM) is on record as 56.83%. Moreover, the “ROS Level, % of Control” value in data set [19] (K562, 5 µM) was 92.84 % of Control. In [19] (K562, 10 µM), the “ROS Level, % of Control” value is on record as 76.96 % of Control. The “ROS Level, % of Control” value in data set [19] (K562, 20 µM) is 71.90 % of Control. Besides, the IC50 in data set [20] stood at 27.3 ± 0.16 µM.
As to `Cc1cn(-c2cc(NC(=O)c3ccc(C)c(Nc4nccc(-c5cccnc5)n4)c3)cc(C(F)(F)F)c2)cn1` [Nilotinib, reference compound], the IC50 is under 0.1 µM in [1]; 2 to 27 µM in [21]; over 50 µM in data set [5]; 22.7 ± 4.76 µM in data set [6]; 4.81 ± 0.21 µM in data set [7]; 2.76 ± 0.06 µM in data set [10]. Further, the values for the IC50 in [17] and in data set [20] were 19.32 ± 0.09 µM and 4.2 ± 0.14 µM, respectively.
